From patent US20240383856A1 (Zedira GmbH, priority 2021, published 2024)

Experiments:
[1] = biological target: T1, recombinant human transglutaminase 2 (Homo sapiens, UniProt P21980); experiment: Transglutaminase assay (DCC-assay): incorporation of dansylcadaverine into dimethylcasein; type: biochemical; conditions: recombinant human TG2 10 nM; dansylcadaverine incorporation into dimethylcasein; read-out: IC50 TG2
T1 construct: purchased Zedira T022
T1 sequence (P21980 1-687): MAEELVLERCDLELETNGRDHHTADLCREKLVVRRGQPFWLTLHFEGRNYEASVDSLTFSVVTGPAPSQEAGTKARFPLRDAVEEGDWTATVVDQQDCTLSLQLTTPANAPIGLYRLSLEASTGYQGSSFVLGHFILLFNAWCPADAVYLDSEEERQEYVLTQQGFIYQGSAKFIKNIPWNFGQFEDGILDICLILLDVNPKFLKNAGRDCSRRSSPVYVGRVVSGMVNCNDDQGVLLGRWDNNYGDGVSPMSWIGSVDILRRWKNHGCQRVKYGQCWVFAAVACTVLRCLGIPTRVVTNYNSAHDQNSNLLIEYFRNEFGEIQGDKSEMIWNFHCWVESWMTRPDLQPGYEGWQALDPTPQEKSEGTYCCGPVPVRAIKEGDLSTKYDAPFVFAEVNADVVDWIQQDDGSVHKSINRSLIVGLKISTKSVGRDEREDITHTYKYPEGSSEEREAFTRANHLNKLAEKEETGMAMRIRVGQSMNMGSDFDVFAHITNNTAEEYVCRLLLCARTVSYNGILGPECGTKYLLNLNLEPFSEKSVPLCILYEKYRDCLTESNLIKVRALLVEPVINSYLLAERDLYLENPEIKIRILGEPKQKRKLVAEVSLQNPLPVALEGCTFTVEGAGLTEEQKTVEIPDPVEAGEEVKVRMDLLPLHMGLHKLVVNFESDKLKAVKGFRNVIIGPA
How it was run: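 IC50 is the inhibitor level that blocks 50% of initial activity. Activity is the fluorescence slope (λex 330, λem 500 nm) between 20 and 30 min of a 37 °C run, relative to a 2% DMSO control. The enzyme is recombinant human tissue transglutaminase, 10 nM final, tested against a 1:2 inhibitor dilution series in a pH 8.0 mix with 10 mM CaCl2, 10 mM glutathione, 16.7 µM dansylcadaverine and 4 µM N,N-dimethylcasein.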

[2] = logD by shake flask method (octanol / PBS pH 7.4, HPLC); type: physicochemical; conditions: octanol / PBS pH 7.4, shake flask
How it was run: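 LogD obtained by HPLC measurement of how the compound distributes between PBS (pH 7.4) and octanol in a shake-flask experiment.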

[3] = Caco-2 permeability assay (CacoReady kit); type: in vitro ADME; conditions: human, Caco-2, Caco-2 barrier, CacoReady kit; above 1×10^−6 cm/s classified as permeable
How it was run: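 Caco-2 monolayer barrier, commercial ready-to-use kit, manufacturer protocol. Read-out: Papp.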

With CNC(=O)C(=O)CC[C@H](NC(=O)c1ncn(C)n1)C(=O)Nc1cccn(CC(=O)NC2C3CC4CC(C3)CC2C4)c1=O (stereo partly drawn) [II-135, (S)-N1-(1-(2-(2-adamantylamino)-2-oxoethyl)-2-oxo-1,2-dihydropyridin-3-yl)-N6-methyl-2-(1-methyl-1H-1,2,4-triazole-3-carboxamido)-5-oxohexanediamide] the IC50 [1] was 40 to 400 nM, the logD [2] was < 1 and the Papp [3] was 1 to 10 ×10⁻⁶ cm/s.

For CNC(=O)C(=O)CC[C@H](NC(=O)c1sccc1Br)C(=O)Nc1cccn(CC(=O)NC2C3CC4CC(C3)CC2C4)c1=O (stereo partly drawn) [II-42, (S)-2-(3-bromothiophene-2-carboxamido)-N1-(1-(2-(2-adamantylamino)-2-oxoethyl)-2-oxo-1,2-dihydropyridin-3-yl)-N6-methyl-5-oxohexanediamide], the IC50 [1] was 40 to 400 nM, the logD [2] was 1 to 3 and the Papp [3] was 1 to 10 ×10⁻⁶ cm/s.

In the case of CNC(=O)C(=O)CC[C@H](NC(=O)c1sc(Br)nc1C)C(=O)Nc1cccn(CC(=O)NC2C3CC4CC(C3)CC2C4)c1=O (stereo partly drawn) [II-14, (S)--(2-bromo-4-methylthiazole-5-carboxamido)-N1-(1-(2-(2-adamantylamino)-2-oxoethyl)-2-oxo-1,2-dihydropyridin-3-yl)-N6-methyl-5-oxohexanediamide], the IC50 [1] is reported as < 40 nM, the logD [2] is reported as 1 to 3 and the Papp [3] is reported as 1 to 10 ×10⁻⁶ cm/s.

For CNC(=O)C(=O)CC[C@H](NC(=O)c1ccc2c(c1)CC(=O)NC2)C(=O)Nc1cccn(CC(=O)NC2(C(=O)O)C3CC4CC2CC(C(F)(F)F)(C4)C3)c1=O (stereo partly drawn) [II-186, (S)-N1-(1-(2-(2-carboxy-2-amino-5-(trifluoromethyl)adamantane)-2-oxoethyl)-2-oxo-1,2-dihydropyridin-3-yl)-N6-methyl-5-oxo-2-(3-oxo-1,2,3,4-tetrahydroisoquinoline-6-carboxamido)hexanediamide], the IC50 [1] was 400 to 2500 nM, the logD [2] was < 1 and the Papp [3] was < 1 ×10⁻⁶ cm/s.

With CNC(=O)C(=O)CC[C@H](NC(=O)c1coc(C(C)=O)n1)C(=O)Nc1cccn(CC(=O)NC23CC(C2)C3)c1=O [II-168, (S)-2-(2-acetyloxazole-4-carboxamido)-N1-(1-(2-(bicyclo[1.1.1]pentan-1-ylamino)-2-oxoethyl)-2-oxo-1,2-dihydropyridin-3-yl)-N6-methyl-5-oxohexanediamide] the IC50 [1] was 40 to 400 nM, the logD [2] was < 1 and the Papp [3] was < 1 ×10⁻⁶ cm/s.

For CNC(=O)C(=O)CC[C@H](NC(=O)[C@@H]1CCCN1C(C)=O)C(=O)Nc1cccn(CC(=O)NC2C3CC4CC(C3)CC2C4)c1=O (stereo partly drawn) [II-50, (S)-2-((S)-1-acetylpyrrolidine-2-carboxamido)-N1-(1-(2-(2-adamantylamino)-2-oxoethyl)-2-oxo-1,2-dihydropyridin-3-yl)-N6-methyl-5-oxohexanediamide], the IC50 [1] was < 40 nM, the logD [2] was < 1 and the Papp [3] was < 1 ×10⁻⁶ cm/s.

With CNC(=O)C(=O)CC[C@H](NC(=O)C1CN2CCC1CC2)C(=O)Nc1cccn(CC(=O)NC2C3CC4CC(C3)CC2C4)c1=O (stereo partly drawn) [II-61, (S)-N1-(1-(2-(2-adamantylamino)-2-oxoethyl)-2-oxo-1,2-dihydropyridin-3-yl)-N6-methyl-5-oxo-2-(quinuclidine-3-carboxamido)hexanediamide] the IC50 [1] was 40 to 400 nM, the logD [2] was 1 to 3 and the Papp [3] was < 1 ×10⁻⁶ cm/s.

Work on CNC(=O)C(=O)CC[C@H](NC(=O)c1oc2ccccc2c1C)C(=O)Nc1cccn(CC23CC4CC(CC(Br)(C4)C2)C3)c1=O [II-109, (2S)-N1-(1-((3-bromo-1-adamantyl)methyl)-2-oxo-1,2-dihydropyridin-3-yl)-N6-methyl-2-(3-methylbenzofuran-2-carboxamido)-5-oxohexanediamide] yielded an IC50 [1] of 40 to 400 nM, a logD [2] of 3 to 5 and a Papp [3] of 1 to 10 ×10⁻⁶ cm/s.

Molecule CNC(=O)C(=O)CC[C@H](NC(=O)c1oc2ccccc2c1C)C(=O)Nc1cccn(CC(=O)N[C@H]2C[C@H]3C[C@@H]([C@@H]2C)C3(C)C)c1=O [II-101, (S)-N1-methyl-5-(3-methylbenzofuran-2-carboxamido)-2-oxo-N6-(2-oxo-1-(2-oxo-2-((1S,2S,3S,5R)-2,6,6-trimethylbicyclo[3.1.1]heptan-3-ylamino)ethyl)-1,2-dihydropyridin-3-yl)hexanediamide] has an IC50 [1] of 40 to 400 nM, a logD [2] of 3 to 5 and a Papp [3] of 1 to 10 ×10⁻⁶ cm/s.

In the case of CNC(=O)C(=O)CC[C@H](NC(=O)c1cc(Br)c(Br)o1)C(=O)Nc1cccn(CC(=O)NC2C3CC4CC(C3)CC2C4)c1=O (stereo partly drawn) [II-48, (S)-2-(4,5-dibromofuran-2-carboxamido)-N1-(1-(2-(2-adamantylamino)-2-oxoethyl)-2-oxo-1,2-dihydropyridin-3-yl)-N6-methyl-5-oxohexanediamide], the IC50 [1] is reported as < 40 nM, the logD [2] is reported as 3 to 5 and the Papp [3] is reported as 1 to 10 ×10⁻⁶ cm/s.

With CNC(=O)C(=O)CC[C@H](NC(=O)[C@@H]1C[C@H](Br)CN1)C(=O)Nc1cccn(CC(=O)NC2C3CC4CC(C3)CC2C4)c1=O (stereo partly drawn) [II-56, (S)-2-((2S,4S)-4-bromopyrrolidine-2-carboxamido)-N1-(1-(2-(2-adamantylamino)-2-oxoethyl)-2-oxo-1,2-dihydropyridin-3-yl)-N6-methyl-5-oxohexanediamide] the IC50 [1] was 40 to 400 nM, the logD [2] was 1 to 3 and the Papp [3] was < 1 ×10⁻⁶ cm/s.

In the case of CNC(=O)C(=O)CC[C@H](NC(=O)c1oc2ccccc2c1C)C(=O)Nc1cccn(CC(=O)NC2C3CC4CC2CC(O)(C4)C3)c1=O (stereo partly drawn) [II-68, (S)-N1-(1-(2-(5-hydroxyadamantane-2-amino)-2-oxoethyl)-2-oxo-1,2-dihydropyridin-3-yl)-N6-methyl-2-(3-methylbenzofuran-2-carboxamido)-5-oxohexanediamide], the IC50 [1] is reported as 40 to 400 nM, the logD [2] is reported as < 1 and the Papp [3] is reported as < 1 ×10⁻⁶ cm/s.

With CNC(=O)C(=O)CC[C@H](NC(=O)c1ccc2occc2c1)C(=O)Nc1cccn(CC(=O)NC2C3CC4CC2CC(NC(C)=O)(C4)C3)c1=O (stereo partly drawn) [II-194, (S)-2-(benzofuran-5-carboxamido)-N1-(1-(2-(1-acetylamino-4-aminoadamantane)-2-oxoethyl)-2-oxo-1,2-dihydropyridin-3-yl)-N6-methyl-5-oxohexanediamide] the IC50 [1] was 40 to 400 nM, the logD [2] was < 1 and the Papp [3] was < 1 ×10⁻⁶ cm/s.

With CNC(=O)C(=O)CC[C@H](NC(=O)c1cc(Br)sc1Br)C(=O)Nc1cccn(CC(=O)NC2C3CC4CC(C3)CC2C4)c1=O (stereo partly drawn) [II-29, (S)-2-(2,5-dibromothiophene-3-carboxamido)-N1-(1-(2-(2-adamantylamino)-2-oxoethyl)-2-oxo-1,2-dihydropyridin-3-yl)-N6-methyl-5-oxohexanediamide] the IC50 [1] was < 40 nM, the logD [2] was 3 to 5 and the Papp [3] was 1 to 10 ×10⁻⁶ cm/s.

With CNC(=O)C(=O)CC[C@H](NC(=O)c1c(I)cnn1C)C(=O)Nc1cccn(CC(=O)NC2C3CC4CC(C3)CC2C4)c1=O (stereo partly drawn) [II-143, (S)-2-(4-iodo-1-methyl-1H-pyrazole-5-carboxamido)-N1-(1-(2-(2-adamantylamino)-2-oxoethyl)-2-oxo-1,2-dihydropyridin-3-yl)-N6-methyl-5-oxohexanediamide] the IC50 [1] was 400 to 2500 nM, the logD [2] was < 1 and the Papp [3] was < 1 ×10⁻⁶ cm/s.

For CNC(=O)C(=O)CC[C@H](NC(=O)c1snnc1C)C(=O)Nc1cccn(CC(=O)N[C@@H]2C[C@@H]3CC[C@H]2C3)c1=O [II-156, (S)-N1-(1-(2-((1S,2R,4R)-bicyclo[2.2.1]heptan-2-ylamino)-2-oxoethyl)-2-oxo-1,2-dihydropyridin-3-yl)-N6-methyl-2-(4-methyl-1,2,3-thiadiazole-5-carboxamido)-5-oxohexanediamide], the IC50 [1] was 40 to 400 nM, the logD [2] was < 1 and the Papp [3] was < 1 ×10⁻⁶ cm/s.

For CNC(=O)C(=O)CC[C@H](NC(=O)c1cc2cc(Br)ccc2s1)C(=O)Nc1cccn(CC(=O)NC2C3CC4CC(C3)CC2C4)c1=O (stereo partly drawn), the IC50 [1] was < 40 nM, the logD [2] was 3 to 5 and the Papp [3] was 1 to 10 ×10⁻⁶ cm/s.

In the case of CNC(=O)C(=O)CC[C@H](NC(=O)[C@H]1COCCN1)C(=O)Nc1cccn(CC(=O)NC2C3CC4CC(C3)CC2C4)c1=O (stereo partly drawn) [II-60, (S)-N1-(1-(2-(2-adamantylamino)-2-oxoethyl)-2-oxo-1,2-dihydropyridin-3-yl)-N6-methyl-2-((R)-morpholine-3-carboxamido)-5-oxohexanediamide], the IC50 [1] is reported as 40 to 400 nM, the logD [2] is reported as < 1 and the Papp [3] is reported as < 1 ×10⁻⁶ cm/s.

In the case of CNC(=O)C(=O)CC[C@H](NC(=O)c1c[nH]c(C(N)=O)c1)C(=O)Nc1cccn(CC(=O)NC23CC(C2)C3)c1=O [II-192, (S)-N4-(1-(1-(2-(bicyclo[1.1.1]pentan-1-ylamino)-2-oxoethyl)-2-oxo-1,2-dihydropyridin-3-ylamino)-6-(methylamino)-1,5,6-trioxohexan-2-yl)-1H-pyrrole-2,4-dicarboxamide], the IC50 [1] is reported as 400 to 2500 nM, the logD [2] is reported as < 1 and the Papp [3] is reported as < 1 ×10⁻⁶ cm/s.
